This is an account of results in patent US9249140B2, “Bicyclic heteroaromatic compounds” (MERCK PATENT GMBH, priority 2011, dated 2016).

One experiment addresses T1, IKKε (Homo sapiens, UniProt Q14164).
T1 construct: 1 nM IKKε, 800 nM biotinylated IκBα(19-42) peptide
T1 sequence (Q14164 1-716): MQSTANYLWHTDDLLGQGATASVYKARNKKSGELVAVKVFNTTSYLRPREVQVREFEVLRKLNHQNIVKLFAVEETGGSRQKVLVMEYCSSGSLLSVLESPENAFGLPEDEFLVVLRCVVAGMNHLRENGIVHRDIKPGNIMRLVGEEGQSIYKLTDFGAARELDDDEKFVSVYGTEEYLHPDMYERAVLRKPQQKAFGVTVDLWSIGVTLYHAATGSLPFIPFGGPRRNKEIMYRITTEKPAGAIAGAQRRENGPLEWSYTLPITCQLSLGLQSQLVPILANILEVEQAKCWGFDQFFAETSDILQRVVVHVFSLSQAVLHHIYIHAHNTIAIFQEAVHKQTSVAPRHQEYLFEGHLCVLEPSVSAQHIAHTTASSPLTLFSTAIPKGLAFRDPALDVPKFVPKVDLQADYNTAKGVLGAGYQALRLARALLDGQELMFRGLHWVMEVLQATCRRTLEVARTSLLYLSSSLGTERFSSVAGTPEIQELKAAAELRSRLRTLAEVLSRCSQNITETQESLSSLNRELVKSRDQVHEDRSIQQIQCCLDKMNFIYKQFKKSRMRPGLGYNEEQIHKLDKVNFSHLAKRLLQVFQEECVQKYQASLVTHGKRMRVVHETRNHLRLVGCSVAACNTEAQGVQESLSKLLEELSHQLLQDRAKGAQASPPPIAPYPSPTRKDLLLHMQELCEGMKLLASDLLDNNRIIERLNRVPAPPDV
Nature of the experiment: IKKε kinase test (IKKepsilon), 384-well flashplate. Format: biochemical. To be noted: enzymatic; 10 μM ATP; read-out: IKKe IC50 (enzymatic). On the procedure: The kinase assay is performed as 384-well flashplate assay. 1 nM IKKε, 800 nM biotinylated IκBα(19-42) peptide (biotin-C6-C6-[…] (SEQ ID NO: 2)) and 10 μM ATP (with 0.3 μCi of 33P-ATP/well) are incubated in a total volume of 50 μl (10 mM MOPS, 10 mM magnesium acetate, 0.1 mM EGTA, 1 mM dithiothreitol, 0.02% of Brij, 0.1% of BSA, 0.1% of BioStab, pH 7.5) with or without test substance at 30° C. for 120 min. The reaction is stopped using 25 μl of 200 mM EDTA solution, filtered off with suction after 30 min at room temperature, and the wells are 25 washed 3 times with 100 μl of 0.9% NaCl solution. The non-specific proportion of the kinase reaction (blank) is determined using 3 μM EMD 1126352 (BX-795). Radioactivity is measured in the Topcount. IC50 values are calculated using RS1.

Another experiment deals with T2, PDK1 (Homo sapiens, UniProt O15530).
T2 construct: the PDK1 sample His6-PDK1(Δ1-50)(3.4 nM)
T2 sequence (O15530 51-556): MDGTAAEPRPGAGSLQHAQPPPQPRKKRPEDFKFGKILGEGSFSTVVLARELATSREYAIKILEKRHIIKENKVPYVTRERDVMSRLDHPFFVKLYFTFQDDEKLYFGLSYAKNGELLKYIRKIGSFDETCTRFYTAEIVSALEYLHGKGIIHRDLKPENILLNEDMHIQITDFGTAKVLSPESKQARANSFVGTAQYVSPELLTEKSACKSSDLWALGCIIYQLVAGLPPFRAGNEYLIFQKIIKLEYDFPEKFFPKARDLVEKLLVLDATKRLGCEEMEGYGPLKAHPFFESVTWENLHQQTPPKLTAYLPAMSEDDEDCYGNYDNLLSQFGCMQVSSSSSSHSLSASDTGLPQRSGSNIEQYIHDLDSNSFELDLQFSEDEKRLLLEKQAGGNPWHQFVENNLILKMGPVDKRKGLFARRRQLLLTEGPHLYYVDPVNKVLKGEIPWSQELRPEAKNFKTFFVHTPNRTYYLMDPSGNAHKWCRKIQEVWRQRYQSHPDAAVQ
Kind of experiment: Test for the inhibition of PDK1, 384-well flashplate. Type of experiment: biochemical. The following applies: enzymatic; 4 μM ATP. On the procedure:
The experimental batches are carried out in a flashplate system with 384 wells/microtitration plate.
In each case, the PDK1 sample His6-PDK1(Δ1-50)(3.4 nM) (“His6” disclosed as SEQ ID NO: 4), the PDK1 substrate biotin-bA-bA-[…] (SEQ ID NO: 1) (400 nM), 4 μM ATP (with 0.2 μCi of 33P-ATP/well) and the test substance in 50 μl of conventional experimental solution per well are incubated at 30° C. for 60 min. The test substances are employed in corresponding concentrations (if desired in a dilution series). The control is carried out without test substance. The reaction is stopped using standard methods and washed. The activity of the kinase is measured via the incorporated radioactivity in top count. In order to determine the non-specific kinase reaction (blank value), the experimental batches are carried out in the presence of 100 nM staurosporine.
The radioactivity (decompositions per minute) of the blank value (no use of test substance in the presence of staurosporine) is subtracted from all other radioactivity values. The controls (kinase activity without test substance) are set equal to 100 percent and all other radioactivity values (after subtracting the blank value) are expressed set in relation thereto (for example in % of the control).

Experiment [1] addresses T3, TANK binding kinase (TBK1) (Homo sapiens, UniProt Q9UHD2).
T3 sequence (Q9UHD2 1-729): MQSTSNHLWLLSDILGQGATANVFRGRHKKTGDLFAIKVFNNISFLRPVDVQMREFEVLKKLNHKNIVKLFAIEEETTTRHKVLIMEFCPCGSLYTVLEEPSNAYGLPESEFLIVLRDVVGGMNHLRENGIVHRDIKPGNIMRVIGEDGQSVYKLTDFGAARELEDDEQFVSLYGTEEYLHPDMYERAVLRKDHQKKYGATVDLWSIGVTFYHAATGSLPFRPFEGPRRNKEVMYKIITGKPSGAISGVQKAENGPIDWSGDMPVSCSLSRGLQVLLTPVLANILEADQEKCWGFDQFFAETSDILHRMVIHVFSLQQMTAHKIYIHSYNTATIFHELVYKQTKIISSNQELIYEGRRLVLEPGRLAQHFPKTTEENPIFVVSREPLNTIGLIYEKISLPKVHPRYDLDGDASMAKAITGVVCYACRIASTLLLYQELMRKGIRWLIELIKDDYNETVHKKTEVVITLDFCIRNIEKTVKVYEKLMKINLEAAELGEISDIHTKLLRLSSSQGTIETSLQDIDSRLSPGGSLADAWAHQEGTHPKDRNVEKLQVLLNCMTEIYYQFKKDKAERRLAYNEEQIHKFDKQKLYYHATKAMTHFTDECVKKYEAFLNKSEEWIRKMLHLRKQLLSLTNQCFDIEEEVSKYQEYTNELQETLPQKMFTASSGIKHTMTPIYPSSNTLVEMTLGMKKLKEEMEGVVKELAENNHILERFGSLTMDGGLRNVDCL
Nature of the experiment: TBK1 kinase test, 384-well flashplate. Format: biochemical. To be noted: enzymatic; 10 μM ATP. On the procedure: The kinase assay is performed as 384-well flashplate assay. 0.6 nM TANK binding kinase (TBK1), 800 nM biotinylated MELK-derived peptide (biotin-Ah-Ah-[…] (SEQ ID NO: 3)) and 10 μM ATP (with 0.25 μCi of 33P-ATP/well) are incubated in a total volume of 50 μl (10 mM MOPS, 10 mM magnesium acetate, 0.1 mM EGTA, 1 mM DTT, 0.02% of Brij35, 0.1% of BSA, pH 7.5) with or without test substance at 30° C. for 120 min. The reaction is stopped using 25 μl of 200 mM EDTA solution, filtered off with suction after 30 min at room temperature, and the wells are washed 3 times with 100 μl of 0.9% NaCl solution. The non-specific proportion of the kinase reaction (blank) is determined using 100 nM staurosporine. Radioactivity is measured in the Topcount. IC50 values are calculated using RS1.

In experiment [2] the target is T4, FAK (Homo sapiens, UniProt Q05397).
T4 construct: 2 nM FAK, 400 nM biotinylated substrate
Kind of experiment: FAK kinase assay (autophosphorylation), 384-well flashplate. Format: biochemical. The following applies: enzymatic; 1 μM ATP; read-out: IC50 (enzymatic), FAK inhibition. On the procedure: The focal adhesion kinase (FAK) assay is carried out either as a 384-well flashplate assay (for example for Topcount measurements) or as a 384-well image flashplate assay (for LEADseeker measurements). […] The reaction is stopped using 25 μl of 200 mM EDTA. After 30 min at 30° C., the liquid is removed, and each well is washed three times with 100 μl of 0.9% sodium chloride solution. Non-specific reaction is determined in the presence of 1 μM EMD 1076893/0(PF-562271). The radioactivity is measured using Topcount (in the case of the use of flashplates) or using LEADseeker (in the case of the use of image flashplates).

Experiment [3] has as its target T4, FAK. Nature of the experiment: Cellular testing of FAK kinase inhibitors: autophosphorylation of FAK at tyrosine 397, Luminex-based assay in HT29 cells. Format: cell-based. To be noted: P-Y397-FAK in HT29 cells, 30 min, serum-free, read-out: IC50 (cellular), FAK inhibition.
Protocol: For analysis of the cellular activity of FAK, the extent of autophosphorylation of FAK at tyrosine 397 is determined with the aid of a Luminex-based assay in the 96-well format. HT29 cells are sown out with 30,000 cells per well in 100 μl of medium (90% of DMEM/10% of FCS) and incubated on the following day for 30 min with a serial dilution of the test substance (7 concentrations) under serum-free conditions. The cells are subsequently lysed using 90 μl of lysis buffer (20 mM tris/HCl pH 8.0, 150 mM NaCl, 1% of NP40, 10% of glycerol, 1% of phosphatase inhibitor II, 20 mM β-glycerol phosphate, 0.1% of protease inhibitor cocktail III, 0.01% of benzonase) per well, and the lysates are separated off from insoluble cell constituents by means of centrifugation through a 96-well filter plate (0.65 μm). The lysates are incubated at 4° C. overnight with shaking with Luminex beads to which an anti-total FAK antibody is coupled. The detection is carried out on the following day by addition of a P-Y397-FAK antibody and a species-specific PE-labelled secondary antibody. P-Y397-FAK is detected by measurement in the Luminex100 instrument by determination of 100 events per cavity in a measurement time of 60 sec. […] The values of the batches treated with test substance are calculated therefrom as percent of control, and IC50 values are determined by means of Assay Explorer.

T4 sequence (Q05397 whole entry): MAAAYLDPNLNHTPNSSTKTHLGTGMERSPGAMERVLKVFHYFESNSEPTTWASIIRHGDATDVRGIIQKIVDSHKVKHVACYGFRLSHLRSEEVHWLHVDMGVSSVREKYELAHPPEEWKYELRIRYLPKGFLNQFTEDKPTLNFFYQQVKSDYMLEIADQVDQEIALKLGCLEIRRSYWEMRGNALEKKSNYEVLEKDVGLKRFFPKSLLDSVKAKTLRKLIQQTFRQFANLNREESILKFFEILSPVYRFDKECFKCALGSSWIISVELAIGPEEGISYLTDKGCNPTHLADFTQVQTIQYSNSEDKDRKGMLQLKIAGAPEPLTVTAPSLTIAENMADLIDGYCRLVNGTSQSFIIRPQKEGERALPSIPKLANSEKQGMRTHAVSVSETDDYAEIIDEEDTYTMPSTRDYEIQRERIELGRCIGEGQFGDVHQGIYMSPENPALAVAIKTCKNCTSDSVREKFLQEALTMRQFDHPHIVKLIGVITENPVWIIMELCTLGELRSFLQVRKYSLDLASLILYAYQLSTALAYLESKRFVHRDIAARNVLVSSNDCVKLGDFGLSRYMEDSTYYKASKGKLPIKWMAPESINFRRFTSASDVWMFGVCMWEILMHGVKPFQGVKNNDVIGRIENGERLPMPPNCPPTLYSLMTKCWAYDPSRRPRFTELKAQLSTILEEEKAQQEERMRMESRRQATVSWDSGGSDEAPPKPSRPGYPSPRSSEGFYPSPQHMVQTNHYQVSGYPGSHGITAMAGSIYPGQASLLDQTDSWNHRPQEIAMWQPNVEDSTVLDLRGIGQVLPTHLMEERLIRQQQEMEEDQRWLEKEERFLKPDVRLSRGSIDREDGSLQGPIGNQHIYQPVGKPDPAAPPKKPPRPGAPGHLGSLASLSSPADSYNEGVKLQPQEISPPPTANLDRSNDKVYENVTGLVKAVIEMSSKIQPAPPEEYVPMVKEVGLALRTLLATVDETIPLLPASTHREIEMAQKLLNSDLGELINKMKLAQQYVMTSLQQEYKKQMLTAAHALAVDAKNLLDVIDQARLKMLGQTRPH

`O=c1ccc(-c2c(C(F)(F)F)cnc3[nH]c(-c4ccc(N5CCOCC5)cc4)cc23)c[nH]1` [A97, 5-[2-(4-Morpholin-4-ylphenyl)-5-trifluoromethyl-1H-pyrrolo[2,3-b]pyridin-4-yl]-1H-pyridin-2-one]: the IC50 (on IKKε; at PDK1; in experiment [1]) was 0.3 to 3 µM in each case.
Regarding `CN(c1ncccc1CNc1c(C#N)cnc2[nH]cc(Cl)c12)S(C)(=O)=O` [A10, N-{3-[(3-Chloro-5-cyano-1H-pyrrolo[2,3-b]-pyridin-4-ylamino)methyl]pyridin-2-yl}-N-methylmethanesulfonamide], the IC50 is 0.3 to 3 µM on FAK [2] and 3 to 50 µM on FAK [3].
